From the supplement of paper PMC13380429

Key:
Caco-2 [1] = assay: cell viability relative to DMSO; higher = less toxic; conditions: 72 h
Calu-3 [2] = assay: as above; conditions: 72 h
HepG2 [3] = assay: as above; conditions: 72 h
U2OS [4] = assay: as above; conditions: 72 h
Vero E6 [5] = assay: as above; conditions: 72 h
Caco-2 [6] = assay: relative viability EC50 (midpoint between 100% and the lowest measured viability); higher = less toxic; conditions: 72 h
Calu-3 [7] = assay: as above; conditions: 72 h
HepG2 [8] = assay: as above; conditions: 72 h
U2OS [9] = assay: as above; conditions: 72 h
Vero E6 [10] = assay: as above; conditions: 72 h
Caco-2 [11] = assay: drug sensitivity score (DSS) for viability; higher = more toxic; extreme values may be limits of the assay; conditions: 72 h
Calu-3 [12] = assay: as above; conditions: 72 h
HepG2 [13] = assay: as above; conditions: 72 h
U2OS [14] = assay: as above; conditions: 72 h
Vero E6 [15] = assay: as above; conditions: 72 h
[16] = test system: A549-ACE2 infected with SARS-CoV-2; assay: cell count relative to DMSO; higher = less toxic; conditions: 24 h
[17] = test system: A549-ACE2 infected with SARS-CoV-2; assay: SARS-CoV-2 infection rate relative to DMSO; higher = more infection; conditions: 24 h
A549-ACE2 [18] = assay: phospholipidosis EC50; higher = less potent phospholipidosis inducer
A549-ACE2 [19] = assay: drug-induced phospholipidosis relative to tamoxifen; higher = more phospholipidosis
[20] = test system: A549-ACE2 infected with SARS-CoV-2; assay: morphology score (similarity to uninfected cells); higher = more like uninfected cells; conditions: 24 h

Clc1ccc(Nc2nnc(Cc3ccncc3)c3ccccc23)cc1 [vatalanib]
cell viability [%]
Conditions | Caco-2 [1] | Calu-3 [2] | HepG2 [3] | U2OS [4] | Vero E6 [5]
1 nM | 98.6 | 95.9 | 101 | 103 | 95.9
10 nM | 99.3 | 89.8 | 92.4 | 100 | 93.8
100 nM | 102 | 97.5 | 107 | 100 | 89
1000 nM | 94.7 | 102 | 102 | 101 | 88.8
10000 nM | 84.5 | 90.3 | 83 | 92.7 | 90

Conditions | drug sensitivity score | relative viability EC50 [µM]
Caco-2 [6] | – | > 10
Caco-2 [11] | 0.7 | –
Calu-3 [7] | – | > 10
Calu-3 [12] | 0 | –
HepG2 [8] | – | > 10
HepG2 [13] | 0.3 | –
U2OS [9] | – | > 10
U2OS [14] | 0 | –
Vero E6 [10] | – | > 10
Vero E6 [15] | 0.4 | –

Clc1cccc(Cl)c1CSc1nnc(-c2cnccn2)s1 [yoda-1]
cell viability [%]
Conditions | Caco-2 [1] | Calu-3 [2] | HepG2 [3] | U2OS [4] | Vero E6 [5]
1 nM | 100 | 98.8 | 84.7 | 101 | 97.4
10 nM | 95.3 | 91.1 | 100 | 98.9 | 100
100 nM | 94.7 | 97 | 97.6 | 90.6 | 94.2
1000 nM | 92.6 | 98.8 | 102 | 92 | 96
10000 nM | 79.6 | 91 | 91 | 93 | 94

Conditions | drug sensitivity score | relative viability EC50 [µM]
Caco-2 [6] | – | > 10
Caco-2 [11] | 0.9 | –
Calu-3 [7] | – | > 10
Calu-3 [12] | 0 | –
HepG2 [8] | – | > 10
HepG2 [13] | 0 | –
U2OS [9] | – | > 10
U2OS [14] | 0 | –
Vero E6 [10] | – | > 10
Vero E6 [15] | 0 | –

c1ccc(C(O[C@@H]2CCCN(CCc3ccc4c(c3)OCO4)C2)c2ccccc2)cc1 [zamifenacin]
cell viability [%]
Conditions | Caco-2 [1] | Calu-3 [2] | HepG2 [3] | U2OS [4] | Vero E6 [5]
1 nM | 94.8 | 104 | 92.6 | 104 | 96.9
10 nM | 91.7 | 99.2 | 107 | 99.6 | 102
100 nM | 98.6 | 97 | 92.7 | 98.8 | 96.7
1000 nM | 98.3 | 102 | 108 | 98.3 | 98.3
10000 nM | 92.5 | 92.2 | 92.1 | 96 | 94.9

Conditions | drug sensitivity score | relative viability EC50 [µM]
Caco-2 [6] | – | > 10
Caco-2 [11] | 0 | –
Calu-3 [7] | – | > 10
Calu-3 [12] | 0 | –
HepG2 [8] | – | > 10
HepG2 [13] | 0 | –
U2OS [9] | – | > 10
U2OS [14] | 0 | –
Vero E6 [10] | – | > 10
Vero E6 [15] | 0 | –

COc1nc(C)cnc1NS(=O)(=O)c1cccnc1-c1ccc(-c2nnco2)cc1 [zibotentan]
cell viability [%]
Conditions | Caco-2 [1] | Calu-3 [2] | HepG2 [3] | U2OS [4] | Vero E6 [5]
1 nM | 104 | 105 | 99.8 | 95.7 | 102
10 nM | 95.2 | 102 | 98 | 99.4 | 96.5
100 nM | 94.9 | 98.9 | 102 | 97.7 | 94.4
1000 nM | 101 | 104 | 101 | 103 | 99.3
10000 nM | 94.9 | 111 | 107 | 105 | 102

Conditions | drug sensitivity score | relative viability EC50 [µM]
Caco-2 [6] | – | > 10
Caco-2 [11] | 0 | –
Calu-3 [7] | – | > 10
Calu-3 [12] | 0 | –
HepG2 [8] | – | > 10
HepG2 [13] | 0 | –
U2OS [9] | – | > 10
U2OS [14] | 0 | –
Vero E6 [10] | – | > 10
Vero E6 [15] | 0 | –

c1cc(CN2CCCCC2)cc(OCCCNc2nc3ccccc3s2)c1 [zolantidine]
Conditions | SARS-CoV-2 infection rate [%] | cell count [%] | cell viability [%] | morphology score | phospholipidosis EC50 [µM]
A549-ACE2 [18], 24 h | – | – | – | – | 7.87
A549-ACE2 [18], 48 h | – | – | – | – | 9.34
A549-ACE2 [18], 72 h | – | – | – | – | 12.4
Caco-2 [1], 1 nM | – | – | 104 | – | –
Caco-2 [1], 10 nM | – | – | 93.4 | – | –
Caco-2 [1], 100 nM | – | – | 99.7 | – | –
Caco-2 [1], 1000 nM | – | – | 96.6 | – | –
Caco-2 [1], 10000 nM | – | – | 86.4 | – | –
Calu-3 [2], 1 nM | – | – | 89.8 | – | –
Calu-3 [2], 10 nM | – | – | 88.3 | – | –
Calu-3 [2], 100 nM | – | – | 108 | – | –
Calu-3 [2], 1000 nM | – | – | 98.1 | – | –
Calu-3 [2], 10000 nM | – | – | 84.9 | – | –
HepG2 [3], 1 nM | – | – | 99.1 | – | –
HepG2 [3], 10 nM | – | – | 91.8 | – | –
HepG2 [3], 100 nM | – | – | 97.6 | – | –
HepG2 [3], 1000 nM | – | – | 102 | – | –
HepG2 [3], 10000 nM | – | – | 89.5 | – | –
U2OS [4], 1 nM | – | – | 101 | – | –
U2OS [4], 10 nM | – | – | 95.9 | – | –
U2OS [4], 100 nM | – | – | 104 | – | –
U2OS [4], 1000 nM | – | – | 97.6 | – | –
U2OS [4], 10000 nM | – | – | 94.6 | – | –
Vero E6 [5], 1 nM | – | – | 90.2 | – | –
Vero E6 [5], 10 nM | – | – | 103 | – | –
Vero E6 [5], 100 nM | – | – | 98.3 | – | –
Vero E6 [5], 1000 nM | – | – | 102 | – | –
Vero E6 [5], 10000 nM | – | – | 94.4 | – | –
[16], 0.3 µM | – | 101 | – | – | –
[16], 3 µM | – | 118 | – | – | –
[16], 10 µM | – | 119 | – | – | –
[16], 30 µM | – | 124 | – | – | –
[17], 0.3 µM | 98 | – | – | – | –
[17], 3 µM | 50 | – | – | – | –
[17], 10 µM | 20 | – | – | – | –
[17], 30 µM | 12 | – | – | – | –
[20], 0.3 µM | – | – | – | -0.12 | –
[20], 3 µM | – | – | – | 0.76 | –
[20], 10 µM | – | – | – | 0.9 | –
[20], 30 µM | – | – | – | 0.62 | –

drug-induced phospholipidosis [%], A549-ACE2 [19]
Conditions | 0.3 µM | 0.833333 µM | 3.33333 µM | 6.66667 µM | 10 µM | 30 µM
24 h | 3.01 | 2.56 | 9.9 | 36.9 | 64.3 | 91.7
48 h | 3.2 | 2.85 | 4.98 | 28.7 | 56.2 | 97.1
72 h | 5.43 | 2.63 | 7.7 | 25.4 | 50.3 | 116

Conditions | drug sensitivity score | relative viability EC50 [µM]
Caco-2 [6] | – | > 10
Caco-2 [11] | 0.2 | –
Calu-3 [7] | – | > 10
Calu-3 [12] | 0.4 | –
HepG2 [8] | – | > 10
HepG2 [13] | 0 | –
U2OS [9] | – | > 10
U2OS [14] | 0 | –
Vero E6 [10] | – | > 10
Vero E6 [15] | 0 | –
